In US10806725B2, “Small molecule inhibitors of XBP1 splicing” (GEORGETOWN UNIVERSITY, priority 2011, dated 2020):

How the values were obtained:
Type in all cases: cell-based
[1] = tested on: MCF7/LCC1 antiestrogen-responsive breast cancer cells; experiment: Crystal violet cell proliferation assay, MCF7/LCC1 cells (combination with antiestrogens); conditions: 72 h, >1.0 indicates synergistic interaction
Protocol: (§1) Compound Sd-6 was tested in a dose-response assay using different breast cancer cell lines, including MCF7/LCC1, MCF7/LCC9, T47D, and MCF-7. MCF7/LCC1 is an ERα-positive estrogen-independent, antiestrogen-responsive breast cancer cell line. MCF7/LCC9 is an ERα-positive estrogen-independent, antiestrogen-resistant breast cancer cell line. MCF- is an ERα-positive estrogen-dependent, antiestrogen-responsive breast cancer cell line. Cells were first plated in 96-well plastic tissue culture plates (10,000 cells per well). The cells were treated with 500 nM of Compound Sd-6 or the vehicle alone (DMSO) for 48 h. Following treatment, the cells were washed with PBS, stained with a crystal violet staining solution, and allowed to dry for 48-72 hrs. After drying, sodium citrate buffer was added to each well and allowed to incubate for 5 min at room temperature. The absorbance was measured at 450 nm using a microplate reader (Biorad; Hercules, Calif.).
(§2) Compound Sd-6 was tested in a dose-response assay using MCF7/LCC1 antiestrogen-responsive breast cancer cells and MCF7/LCC9 antiestrogen-resistant breast cancer cells. Cells were first plated in 96-well plastic tissue culture plates (10,000 cells per well). […] Following treatment, cell proliferation was determined using a crystal violet assay as described above. […]

[2] = tested on: MCF 10A, a non-breast cancer cell line; experiment: Crystal violet dose-response cell proliferation assay, MCF 10A control cells; conditions: MCF 10A cells; 10 μM, 25 μM or 50 μM for 72 h
Protocol: as §1
Compound Sd-6 was tested in a dose-response assay using different breast cancer cell lines, including MCF7/LCC1, MCF7/LCC9, T47D, MCF-7, MCF-7/RR, LY2, and MDA-MB-231. MCF 10A, a non-breast cancer cell line, served as the control. The cells were first plated in 96-well plastic tissue culture plates (10,000 cells per well). […] Following treatment, cell proliferation was determined using a crystal violet assay as described in Example 1.

[3] = tested on: MCF7/LCC9 antiestrogen-resistant breast cancer cells; experiment: Crystal violet cell proliferation assay, MCF7/LCC9 cells (combination with antiestrogens); conditions: 10 μM Compound Sd-6 combined with 100 nM Faslodex/ICI 182,780 (ICI), 72 h, >1.0 indicates synergistic interaction
Protocol: as §1, §2

[4] = tested on: antiestrogen resistant LCC9 cells; experiment: Crystal violet cell viability assay, antiestrogen resistant LCC9 cells; conditions: 72 hours, normalized to vehicle-treated cells, compared with NPPTA
Protocol: To measure cell viability, antiestrogen resistant LCC9 cells were plated in 96-well plastic tissue culture plates at a density of 5×10^3 cells/well. Twenty-four hours after plating, cells were treated with 3-naphthoyl-1,1,1-trifluoroacetone (NPPTA) and the analogs (i.e., Compound JS-011, Compound JS-012, Compound JS-013, Compound JS-014, Compound JS-015, Compound JS-020). After 72 hours, the cell culture media was removed and plates were stained with […] of a solution containing 0.5% crystal violet and 25% methanol, rinsed with deionized water, dried overnight, and resuspended in […] citrate buffer (0.1 M sodium citrate in 50% ethanol) to assess plating efficiency. Intensity of crystal violet staining, assessed at 570 nm and quantified using a Vmax Kinetic Microplate Reader and Softmax software (Molecular Devices Corp., Menlo Park, Calif.), was directly proportional to cell number. Data were normalized to vehicle-treated cells and are presented in FIG. 8 as the mean±SE from representative experiments.

O=C(CSc1nc(-c2cccnc2)n[nH]1)Nc1ccc(Oc2ccccc2)cc1 [Compound Sd-6]
RI value (Sexp/Sobs) for inhibition of cell proliferation ([1]; 10 μM Compound Sd-6 combined with 100 nM Faslodex/ICI 182,780 (ICI)): 1.44 | RI value (Sexp/Sobs) for inhibition of cell proliferation ([1]; 10 μM Compound Sd-6 combined with 100 nM Tamoxifen (TAM)): 1.82 | Response of relative cell proliferation to compound [2]: did not respond | RI value (Sexp/Sobs) for inhibition of cell proliferation [3]: 1.27

O=C(CSc1nc(-c2cccnc2)n[nH]1)Nc1ccc(Oc2ccc(Cl)cc2)cc1 [JS-014]
Inhibition of LCC9 cells (cell viability, crystal violet) [4]: effective, and more potent than NPPTA

O=C(CSc1nc(-c2cccnc2)n[nH]1)Nc1ccc(Oc2ccc(C(F)(F)F)cc2)cc1 [JS-020]
Inhibition of LCC9 cells (cell viability, crystal violet) [4]: effective, and more potent than NPPTA
